Test system: breitblättrigew unerwünschte Pflanzen
Assay: Greenhouse herbicide test, pre- and post-emergence treatment
Format: in vivo
Conditions: 2,0 kg/ha a.S., Nachauflaufverfahren bzw. Vorauflaufverfahren, 2 bis 4 Wochen
From the text: Die herbizide Wirkfung der (3-Chlor-2-methylphenylethylamine der Formel I ließ sich durch Gewächshausversuche zeigen: Zur Aufzucht der Testpflanzen dienten Plastikblumentöpfe mit 300 cm³ Inhalt und lehmigem Sand mit etwa 3 % Humus als Substrat. Die Samen der Testpflanzen wurden nach Arten getrennt flach eingesät.
Bei Vorauflaufbehandlung wurden die aufbereiteten Wirkstoffe unmittelbar danach auf die Erdoberfläche aufgebracht. Sie wurden hierbei in Wasser als Verteilungsmittel suspendiert oder emulgiert und mittels fein verteilender Düsen gespritzt. Nach dem Aufbringen der Mittel wurden die Gefäße leicht beregnet, um Keimung und Wachstum in Gang zu bringen. Danach wurden die Gefäße mit durchsichtigen Plastikhauben abgedeckt, bis die Pflanzen angewaschsen waren. Diese Abdeckung fördert ein gleichmäßiges Keimen der Testpflanzen, sofern dies nicht durch die Wirkstoffe beeinträchtigt wird. Die Aufwandmengen betrugen 2,0 kg/ha.
Zum Zwecke der Nachauflaufbehandlung wurden die Testpflanzen je nach Wuchsform erst bis zu einer Wuchshöhe von 3 bis 15 cm angezüchtet und erst dann behandelt. Die Testpflanzen wurden dafür entweder direkt gesät und in den gleichen Gefäßen aufgezogen oder sie wurden als Keimpflanzen getrennt gezüchtet und einige Tage vor der Behandlung in die Versuchsgefäße verpflanzt. Die Aufwandmengen für die Nachauflaufbehandlung betrugen 2,0 kg Wirkstoff/ha. […]

SMILES: Cc1c(Cl)cccc1CCNC(=O)c1ccccc1 [Beispiel 3, N-Benzoyl-3-chlor-2-methylphenethylamin]
- herbizide Wirkung (Bekämpfung breitblättriger unerwünschter Pflanzen): sehr gut

Reference: patent EP0340709A1, “(3-Chloro-methyl phenyl)ethyl amines, processes for their production and their use” (BASF Aktiengesellschaft, priority 1988, dated 1989)
